# Source: PMC10741027, “Risk Assessment of Psychotropic Drugs on Mitochondrial Function Using In Vitro Assays” (Biomedicines, 2023)
# Legend:
# [1] = test system: HepG2 cells; assay: Acute extracellular flux (AEF) assay in intact HepG2 cells (Seahorse XFe96); format: cell-based, human; conditions: Homo sapiens; for minimal effective concentration: HepG2, minimum effective concentration crossing vehicle control threshold
# [2] = literature values, plasma or serum of adult humans when possible; ref 68-88 (per drug, Table 2 Cmax Reference); cited from earlier work
# [3] = test system: HepG2 cells; assay: Glu/Gal assay: cellular ATP (CellTiter-Glo) after 24 h in glucose or galactose media; conditions: for AC50 / minimal effective concentration: Homo sapiens, HepG2, 24 h; for Effect on cell viability / ATP in Glu and Gal media (in words): 24 h incubation, top concentration
# [4] = test system: CI-linked respiration; conditions: read-out: CI-linked respiration IC50; isolated mitochondria, partial inhibition; cited from earlier work
# [5] = test system: CII-linked respiration; conditions: read-out: CII-linked respiration IC50; isolated mitochondria, partial inhibition; cited from earlier work
# [6] = test system: rat liver mitochondria (CII-linked respiration); assay: High-resolution respirometry, MMP and ROS in isolated rat liver mitochondria (Oroboros O2k); format: biochemical; conditions: for % MMP / % O2 consumption: basal succinate-driven respiration, normalized to control
# Experimental: Mitochondria were isolated from adult Wistar Rat liver. […] The liver was homogenized with 10 passes in a loose-fitting homogenizer, followed by 10 passes in a tight-fitting homogenizer, and filtered through muslin. The tissue homogenate was then centrifuged at 1000× g for 10 min at 4 °C and the supernatants were further centrifuged at 10,000× g for 10 min. The centrifugation steps were repeated, preserving the pellet. […] Protein concentration was determined using the Bradford method with bovine serum albumin as the standard. The Oroboros® Oxygraph-2K (Oroboros Instruments, Innsbruck, Austria) was used to simultaneously analyze high-resolution respirometry and mitochondrial membrane potential (MMP). […] At the beginning of each experiment, the O2k chambers were filled with 2 mL of reaction buffer (200 mM sucrose, 25 mM KCl, 5 mM MgCl2, 4 mM KH2PO4, 5 mM MOPS, pH 7.4) and equilibrated with air at 37 °C. During the experiments, the incubation chambers were kept at constant temperature by Peltier control (±0.001 °C) and the medium was stirred using white PVDF-coated stirrers (750 rpm). […] This was followed by serial additions of the drugs to assess their dose-dependent effect on the MMP and mitochondrial respiration. Injection of RLM results in an uptake of safranin and a corresponding decline in the fluorescence signal.
# [7] = HepG2, concentration at which 50% maximum effect is observed, read-out: AC50 ATP Production
# [8] = HepG2, concentration at which 50% maximum effect is observed, read-out: AC50 ECAR
# [9] = HepG2, concentration at which 50% maximum effect is observed, read-out: AC50 OCR
# [10] = HepG2, concentration at which 50% maximum effect is observed, read-out: AC50 Proton Leak
# [11] = HepG2, concentration at which 50% maximum effect is observed, read-out: AC50 Reserve Capacity
Structure (SMILES),minimal effective concentration ([1]; read-out: MEC ATP Production) [µM],"AC50 [1, 7] [µM]","AC50 [1, 8] [µM]","AC50 [1, 9] [µM]","AC50 [1, 10] [µM]","AC50 [1, 11] [µM]",Cmax [2] [µM],AC50 ([3]; read-out: Gal AC50) [µM],AC50 ([3]; read-out: Glu AC50) [µM],further results
O=C1NC(=O)C(c2ccccc2)(c2ccccc2)N1 [Phenytoin],197,> 200,> 200,> 200,> 200,26.6,30,> 200,> 200,minimal effective concentration ([1]; read-out: MEC ECAR): 138 µM; minimal effective concentration ([1]; read-out: MEC OCR): 90.9 µM; minimal effective concentration ([1]; read-out: MEC Reserve Capacity): 1.45 µM
CCC1(c2ccccc2)C(=O)NC(=O)NC1=O [Phenobarbital],–,–,–,–,–,–,–,> 100,> 100,"AC50 ([1]; HepG2, read-out: AC50 ATP Production): > 100 µM; AC50 ([1]; HepG2, read-out: AC50 ECAR): > 100 µM; AC50 ([1]; HepG2, read-out: AC50 OCR): > 100 µM; AC50 ([1]; HepG2, read-out: AC50 Proton Leak): > 100 µM; AC50 ([1]; HepG2, read-out: AC50 Reserve Capacity): > 100 µM"
Nc1nnc(-c2cccc(Cl)c2Cl)c(N)n1 [Lamotrigine],14,75.7,> 100,> 100,> 100,> 100,4,> 100,> 100,IC50 [4]: 332 µM; IC50 [5]: 381 µM; Effect on cell viability / ATP in Glu and Gal media (in words) [3]: no cytotoxicity
CCN1CCCC1CNC(=O)c1cc(S(=O)(=O)CC)c(N)cc1OC (stereo not drawn) [Amisulpride],–,–,–,–,–,–,2.56,–,–,Effect on cell viability / ATP in Glu and Gal media (in words) [3]: did not show any effect on ATP production in any of the media conditions
COC(=O)[C@H]1[C@H]2C[C@@H]3c4[nH]c5cc(OC)ccc5c4CCN3C[C@H]2C[C@@H](OC(=O)c2cc(OC)c(OC)c(OC)c2)[C@@H]1OC [Reserpine],59.4,77.3,–,> 100,36.8,–,0.0004,79,48.9,minimal effective concentration ([1]; read-out: MEC OCR): 60.3 µM; minimal effective concentration ([1]; read-out: MEC Proton Leak): 30 µM; minimal effective concentration ([3]; read-out: Gal MEC): 19 µM; minimal effective concentration ([3]; read-out: Glu MEC): 6.68 µM
CCC1(c2ccccc2)C(=O)NCNC1=O [Primidone],–,> 100,> 100,> 100,> 100,> 100,–,> 100,> 100,–
C=CC(N)CCC(=O)O (stereo not drawn) [Vigabatrin],–,> 1000,> 1000,> 1000,> 1000,> 1000,4,> 1000,> 1000,–
Cc1cc2c(s1)Nc1ccccc1N=C2N1CCN(C)CC1 [Olanzapine],–,–,–,–,–,–,0.02,–,–,"% MMP ([6]; 20 μM): 92%; % O2 consumption ([6]; 20 μM): 90%; decrease in the MMP ([6]; 50 µM): 10%; % MMP ([6]; 50 μM): 90%; % O2 consumption ([6]; 50 μM): 92%; % MMP ([6]; 50 μM, listed as olanzapine): mild dissipation of the membrane potential"
